Test results from the Kinase Knowledgebase extract (Sharma et al. 2016).

target: EGFR (UniProt P00533); settings: not given
Sequence (P00533 whole entry, looked up): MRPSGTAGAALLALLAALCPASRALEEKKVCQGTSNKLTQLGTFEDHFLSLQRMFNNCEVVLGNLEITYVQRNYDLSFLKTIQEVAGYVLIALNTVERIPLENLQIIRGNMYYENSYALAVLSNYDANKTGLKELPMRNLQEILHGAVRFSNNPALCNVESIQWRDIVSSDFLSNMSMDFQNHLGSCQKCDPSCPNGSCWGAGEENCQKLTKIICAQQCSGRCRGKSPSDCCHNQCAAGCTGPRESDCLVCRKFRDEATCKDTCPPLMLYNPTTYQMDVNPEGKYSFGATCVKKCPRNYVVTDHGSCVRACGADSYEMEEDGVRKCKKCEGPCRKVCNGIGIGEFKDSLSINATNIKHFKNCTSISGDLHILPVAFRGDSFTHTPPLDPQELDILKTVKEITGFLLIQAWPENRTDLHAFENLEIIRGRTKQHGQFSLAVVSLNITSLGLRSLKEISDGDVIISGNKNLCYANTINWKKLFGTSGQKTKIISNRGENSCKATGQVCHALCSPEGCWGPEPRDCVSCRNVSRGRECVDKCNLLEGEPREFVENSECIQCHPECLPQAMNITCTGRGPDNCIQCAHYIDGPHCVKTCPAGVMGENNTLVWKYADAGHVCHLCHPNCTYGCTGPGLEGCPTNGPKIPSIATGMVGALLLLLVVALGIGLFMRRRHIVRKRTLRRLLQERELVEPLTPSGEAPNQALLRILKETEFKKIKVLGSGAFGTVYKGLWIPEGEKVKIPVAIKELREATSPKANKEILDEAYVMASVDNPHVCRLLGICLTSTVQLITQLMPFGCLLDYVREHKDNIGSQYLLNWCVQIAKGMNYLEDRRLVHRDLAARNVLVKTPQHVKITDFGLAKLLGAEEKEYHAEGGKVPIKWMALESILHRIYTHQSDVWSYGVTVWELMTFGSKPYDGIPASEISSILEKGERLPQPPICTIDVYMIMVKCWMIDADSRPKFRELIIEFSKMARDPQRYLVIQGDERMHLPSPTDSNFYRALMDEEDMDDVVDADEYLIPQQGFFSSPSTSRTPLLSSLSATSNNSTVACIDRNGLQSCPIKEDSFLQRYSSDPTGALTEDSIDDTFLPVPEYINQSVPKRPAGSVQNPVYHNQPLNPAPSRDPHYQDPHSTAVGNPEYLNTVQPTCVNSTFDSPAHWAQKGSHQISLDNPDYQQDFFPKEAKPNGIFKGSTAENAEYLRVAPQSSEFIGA

| SMILES | IC50 [µM] |
| --- | --- |
| NC(=O)CNCc1ccc2ncnc(Nc3ccc4c(cnn4Cc4ccccc4)c3)c2c1 | < 0.1 |
| CC(C)(C)OC(=O)[C@H]1CCCN1Cc1ccc2ncnc(Nc3ccc4c(cnn4Cc4ccccc4)c3)c2c1 | 0.1 to 1 |
| CS(=O)(=O)CCNCc1ccc2ncnc(Nc3ccc4c(cnn4Cc4ccccc4)c3)c2c1 | < 0.1 |
| O=C(O)CNCc1ccc2ncnc(Nc3ccc4c(cnn4Cc4ccccc4)c3)c2c1 | < 0.1 |
| NC(=O)[C@@H]1CCCN1Cc1ccc2ncnc(Nc3ccc4c(cnn4Cc4ccccc4)c3)c2c1 | < 0.1 |
| CN(CC(N)=O)Cc1ccc2ncnc(Nc3ccc4c(cnn4Cc4ccccc4)c3)c2c1 | < 0.1 |

target: EGFR (human) (UniProt P00533); settings: hn5
Sequence (P00533 whole entry, looked up): as above

| SMILES | IC50 [µM] |
| --- | --- |
| CS(=O)(=O)CCNCCCOc1ccc2ncnc(Nc3ccc(OCc4ccccc4)cc3)c2c1 | 5 to 25 |
| CS(=O)(=O)CCNCCCCOc1ccc2ncnc(Nc3ccc(OCc4cccc(F)c4)c(Cl)c3)c2c1 | 5 to 25 |
| CS(=O)(=O)CCNCCCCOc1ccc2ncnc(Nc3ccc(OCc4ccccc4)cc3)c2c1 | < 5 |
| CS(=O)(=O)CCNCCCCOc1ccc2ncnc(Nc3ccc(S(=O)(=O)c4ccccc4)cc3)c2c1 | < 5 |
| CN(CCCOc1ccc2ncnc(Nc3ccc(OCc4ccccc4)cc3)c2c1)CCS(C)(=O)=O | < 5 |
